ChEMBL document CHEMBL5230108, “Computational methods-guided design of modulators targeting protein-protein interactions (PPIs)” (Eur J Med Chem, 2020)
Numbered stars: 1 amine (or outer) side, 2 acyl side, 3 side chain; on linkers, the order of the positions; unused ones are H or OH. Square brackets hold non-standard residues; d marks the D form. Peptide text beside a SMILES is read from it. * marks the point of attachment. ξ: configuration not given here. X1 = O=C(O)c1cc(NC(=S)*)ccc1-c1c2ccc(=O)cc-2oc2cc(O)ccc12; N(2-(2-PhOPh)Et)Gly = O=C(O)CNCCc1ccccc1Oc1ccccc1; Gly(N-3,5-(OMe)2-Ph) = COc1cc(NCC(=O)O)cc(OC)c1; X2 = COc1ccc([C@H](C)N(CC(=O)[*:2])[*:1])cc1; Ala(cPent) = N[C@@H](CC1CCCC1)C(=O)O; N((CH2)3OiPr)Gly = CC(C)OCCCNCC(=O)O; Cbz = O=C(OCc1ccccc1)*; ξI = CCC(C)C(N)C(=O)O; βAla = NCCC(=O)O; ξA = CC(N)C(=O)O

How the values were obtained:
[1] = biological target: Adenomatous polyposis coli protein (Homo sapiens, UniProt P25054); assay: Binding affinity to APC (unknown origin) assessed as inhibition constant by ITC analysis
[2] = biological target: Histone-lysine N-methyltransferase 2A (Homo sapiens, UniProt Q03164); assay: Competitive binding affinity to full length wild type MLL (unknown origin)
[3] = biological target: Tumour suppressor protein p53/Mdm4 (Homo sapiens, UniProt O15151+P04637); assay: Inhibition of human DMX-p53 protein-protein interaction […]; type: protein assay
Heat shock protein HSP90 = Heat shock protein HSP90 (Homo sapiens, UniProt P07900+P08238); assay: Binding affinity to HSP90 (unknown origin) assessed as dissociation constant; type: protein assay
[4] = biological target: Catenin beta-1/Transcription factor 7 (Homo sapiens) (UniProt P36402+P35222); assay: Binding affinity to beta-catenin/Tcf (unknown origin) assessed as gibbs free energy change; type: protein assay
[5] = Inhibition of full length GST-tagged Wnt (unknown origin) by luciferase assay; set-up: species or system Homo sapiens
[6] = biological target: Catenin beta-1/Transcription factor 7 (Homo sapiens, UniProt P35222+P36402); assay: Inhibition of N-terminal beta-catenin/full length myc-tagged TCF (unknown origin) trasfected in HEK293 cells measured for 48 hrs by; type: cell-based
[7] = Binding affinity to APC/ASEF (unknown origin) protein protein interaction assessed as dissociation constant by ITC analysis; set-up: species or system Homo sapiens

Sequence of Tumour suppressor protein p53/Mdm4 (P04637 whole entry): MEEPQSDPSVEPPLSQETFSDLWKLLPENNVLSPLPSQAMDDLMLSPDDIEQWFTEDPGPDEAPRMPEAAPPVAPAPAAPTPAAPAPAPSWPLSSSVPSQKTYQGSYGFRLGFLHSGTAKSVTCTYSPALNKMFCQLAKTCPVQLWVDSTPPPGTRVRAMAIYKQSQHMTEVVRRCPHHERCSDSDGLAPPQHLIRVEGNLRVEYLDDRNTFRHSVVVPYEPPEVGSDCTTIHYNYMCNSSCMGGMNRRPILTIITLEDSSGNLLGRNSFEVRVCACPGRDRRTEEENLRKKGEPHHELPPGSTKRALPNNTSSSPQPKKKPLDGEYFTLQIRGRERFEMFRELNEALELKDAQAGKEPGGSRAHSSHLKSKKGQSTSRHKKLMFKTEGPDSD
Sequence of Tumour suppressor protein p53/Mdm4 (O15151 whole entry): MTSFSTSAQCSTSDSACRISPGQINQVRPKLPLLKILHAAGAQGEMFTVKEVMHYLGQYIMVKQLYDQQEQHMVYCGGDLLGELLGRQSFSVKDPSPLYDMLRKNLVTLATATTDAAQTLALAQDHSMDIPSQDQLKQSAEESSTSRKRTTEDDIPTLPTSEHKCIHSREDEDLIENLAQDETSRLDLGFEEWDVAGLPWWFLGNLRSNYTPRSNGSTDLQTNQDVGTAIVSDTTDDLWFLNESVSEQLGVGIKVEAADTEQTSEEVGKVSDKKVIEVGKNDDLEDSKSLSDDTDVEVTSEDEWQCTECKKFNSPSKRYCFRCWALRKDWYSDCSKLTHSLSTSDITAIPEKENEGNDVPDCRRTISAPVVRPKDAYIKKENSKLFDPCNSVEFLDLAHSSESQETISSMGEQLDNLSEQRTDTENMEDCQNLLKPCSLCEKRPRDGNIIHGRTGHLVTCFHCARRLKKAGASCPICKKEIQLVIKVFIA
Sequence of Histone-lysine N-methyltransferase 2A (Q03164 1-2718 limits assumed): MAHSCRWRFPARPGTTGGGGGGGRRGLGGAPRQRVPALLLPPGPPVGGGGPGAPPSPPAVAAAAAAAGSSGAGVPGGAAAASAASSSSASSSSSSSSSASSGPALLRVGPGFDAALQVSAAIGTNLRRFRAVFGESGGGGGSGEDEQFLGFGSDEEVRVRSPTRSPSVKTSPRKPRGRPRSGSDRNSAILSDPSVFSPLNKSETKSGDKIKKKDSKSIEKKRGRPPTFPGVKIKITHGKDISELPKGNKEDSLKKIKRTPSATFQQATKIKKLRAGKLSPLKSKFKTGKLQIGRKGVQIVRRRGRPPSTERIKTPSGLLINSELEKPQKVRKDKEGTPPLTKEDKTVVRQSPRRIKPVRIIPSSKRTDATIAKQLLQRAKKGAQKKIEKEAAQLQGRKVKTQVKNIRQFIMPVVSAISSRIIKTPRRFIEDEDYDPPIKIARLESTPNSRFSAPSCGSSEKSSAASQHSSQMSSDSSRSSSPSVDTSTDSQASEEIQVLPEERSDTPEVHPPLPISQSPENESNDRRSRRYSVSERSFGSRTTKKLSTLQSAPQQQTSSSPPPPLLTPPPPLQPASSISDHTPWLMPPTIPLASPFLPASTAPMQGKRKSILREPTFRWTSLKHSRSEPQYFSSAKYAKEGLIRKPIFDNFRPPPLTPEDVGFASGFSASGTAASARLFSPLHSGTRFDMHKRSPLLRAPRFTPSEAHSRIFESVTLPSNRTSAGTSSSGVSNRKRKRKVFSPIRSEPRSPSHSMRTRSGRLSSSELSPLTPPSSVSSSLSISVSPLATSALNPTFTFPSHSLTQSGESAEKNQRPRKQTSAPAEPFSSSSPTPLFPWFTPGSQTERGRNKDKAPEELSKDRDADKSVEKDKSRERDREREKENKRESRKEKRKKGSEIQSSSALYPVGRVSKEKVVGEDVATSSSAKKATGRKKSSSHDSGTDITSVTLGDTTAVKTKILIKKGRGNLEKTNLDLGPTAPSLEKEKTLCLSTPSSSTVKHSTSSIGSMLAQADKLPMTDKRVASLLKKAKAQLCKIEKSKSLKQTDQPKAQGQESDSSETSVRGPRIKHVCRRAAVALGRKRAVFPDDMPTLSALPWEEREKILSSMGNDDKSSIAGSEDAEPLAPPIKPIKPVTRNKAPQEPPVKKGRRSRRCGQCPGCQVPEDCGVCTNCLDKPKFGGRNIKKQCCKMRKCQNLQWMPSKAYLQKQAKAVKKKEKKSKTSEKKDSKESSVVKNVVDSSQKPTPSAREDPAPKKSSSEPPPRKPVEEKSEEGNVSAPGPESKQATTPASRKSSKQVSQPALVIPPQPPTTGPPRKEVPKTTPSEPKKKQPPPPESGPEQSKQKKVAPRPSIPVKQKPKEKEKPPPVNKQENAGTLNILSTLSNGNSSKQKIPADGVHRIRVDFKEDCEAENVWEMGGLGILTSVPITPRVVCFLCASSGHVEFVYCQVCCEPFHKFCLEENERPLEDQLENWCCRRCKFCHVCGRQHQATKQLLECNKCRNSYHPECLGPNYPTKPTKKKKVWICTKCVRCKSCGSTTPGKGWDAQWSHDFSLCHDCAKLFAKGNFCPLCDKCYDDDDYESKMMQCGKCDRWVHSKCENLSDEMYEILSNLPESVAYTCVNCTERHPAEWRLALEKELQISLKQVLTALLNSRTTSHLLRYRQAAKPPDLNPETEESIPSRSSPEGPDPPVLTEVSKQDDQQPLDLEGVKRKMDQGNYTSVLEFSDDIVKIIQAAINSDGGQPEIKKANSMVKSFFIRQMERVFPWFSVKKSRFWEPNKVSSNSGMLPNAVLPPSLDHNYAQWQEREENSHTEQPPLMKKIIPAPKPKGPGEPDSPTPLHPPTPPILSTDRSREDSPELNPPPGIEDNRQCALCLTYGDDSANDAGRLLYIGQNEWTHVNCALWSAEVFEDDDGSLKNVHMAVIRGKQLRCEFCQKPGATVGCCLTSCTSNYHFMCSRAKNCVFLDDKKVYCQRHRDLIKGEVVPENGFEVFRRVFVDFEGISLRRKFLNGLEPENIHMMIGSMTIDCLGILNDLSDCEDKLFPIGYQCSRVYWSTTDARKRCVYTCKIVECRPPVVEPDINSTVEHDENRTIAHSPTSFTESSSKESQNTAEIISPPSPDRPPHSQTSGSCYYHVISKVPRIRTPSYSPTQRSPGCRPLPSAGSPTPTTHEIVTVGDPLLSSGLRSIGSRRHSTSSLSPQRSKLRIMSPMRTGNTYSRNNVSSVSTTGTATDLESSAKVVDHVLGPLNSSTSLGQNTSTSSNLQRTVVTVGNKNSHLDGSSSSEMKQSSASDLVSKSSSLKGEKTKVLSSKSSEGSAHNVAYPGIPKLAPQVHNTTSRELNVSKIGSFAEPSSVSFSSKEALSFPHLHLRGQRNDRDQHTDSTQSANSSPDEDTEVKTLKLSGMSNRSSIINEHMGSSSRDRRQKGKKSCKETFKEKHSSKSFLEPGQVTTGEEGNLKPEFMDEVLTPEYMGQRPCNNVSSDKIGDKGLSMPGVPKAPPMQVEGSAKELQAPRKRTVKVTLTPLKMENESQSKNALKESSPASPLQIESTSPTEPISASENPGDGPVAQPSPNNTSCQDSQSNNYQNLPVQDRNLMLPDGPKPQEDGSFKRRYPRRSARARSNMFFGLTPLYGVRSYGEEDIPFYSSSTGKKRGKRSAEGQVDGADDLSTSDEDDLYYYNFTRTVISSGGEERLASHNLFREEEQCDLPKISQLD
Sequence of Histone-lysine N-methyltransferase 2A (Q03164 2719-3969 limits assumed): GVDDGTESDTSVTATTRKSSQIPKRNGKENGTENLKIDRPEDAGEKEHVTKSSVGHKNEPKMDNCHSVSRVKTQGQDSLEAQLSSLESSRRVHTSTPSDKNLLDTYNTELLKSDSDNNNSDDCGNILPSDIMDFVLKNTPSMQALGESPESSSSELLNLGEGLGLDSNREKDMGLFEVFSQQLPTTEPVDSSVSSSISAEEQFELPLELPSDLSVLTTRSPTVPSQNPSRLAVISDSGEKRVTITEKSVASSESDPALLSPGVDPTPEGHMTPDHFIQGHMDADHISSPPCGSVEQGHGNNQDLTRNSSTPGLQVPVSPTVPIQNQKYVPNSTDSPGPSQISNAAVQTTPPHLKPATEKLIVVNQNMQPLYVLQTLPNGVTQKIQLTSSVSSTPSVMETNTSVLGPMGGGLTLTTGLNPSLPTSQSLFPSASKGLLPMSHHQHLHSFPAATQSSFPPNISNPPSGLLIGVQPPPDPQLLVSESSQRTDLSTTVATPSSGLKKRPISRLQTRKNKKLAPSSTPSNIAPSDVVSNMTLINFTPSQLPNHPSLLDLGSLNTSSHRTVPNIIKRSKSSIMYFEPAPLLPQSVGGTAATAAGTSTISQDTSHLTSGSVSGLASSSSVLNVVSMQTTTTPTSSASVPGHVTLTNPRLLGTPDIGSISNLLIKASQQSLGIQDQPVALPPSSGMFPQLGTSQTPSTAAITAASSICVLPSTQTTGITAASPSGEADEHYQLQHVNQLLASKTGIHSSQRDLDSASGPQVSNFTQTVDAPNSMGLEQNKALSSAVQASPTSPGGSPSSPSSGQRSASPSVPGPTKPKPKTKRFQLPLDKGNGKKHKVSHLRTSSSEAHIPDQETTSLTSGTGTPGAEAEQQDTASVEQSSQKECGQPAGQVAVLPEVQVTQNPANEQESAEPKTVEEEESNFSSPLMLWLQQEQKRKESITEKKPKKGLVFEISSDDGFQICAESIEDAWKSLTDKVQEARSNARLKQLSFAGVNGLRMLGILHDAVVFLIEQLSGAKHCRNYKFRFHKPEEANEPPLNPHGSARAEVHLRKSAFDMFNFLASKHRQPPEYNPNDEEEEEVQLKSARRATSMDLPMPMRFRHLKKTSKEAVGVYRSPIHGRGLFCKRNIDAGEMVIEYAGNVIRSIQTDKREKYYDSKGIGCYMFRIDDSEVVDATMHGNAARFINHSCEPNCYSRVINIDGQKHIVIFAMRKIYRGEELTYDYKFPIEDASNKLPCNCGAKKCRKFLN

C[C@H](NC(=O)OCc1ccccc1)C(=O)NCC(=O)N[C@@H](CCC(=O)O)C(=O)N[C@@H](C)C(=O)N[C@@H](CC1CCCC1)C(=O)N[C@@H](Cc1ccc(O)cc1)C(=O)N[C@@H](CCC(=O)O)C(N)=O (Cbz-AGEA[Ala(cPent)]YE-NH2)
Ki [1]: 0.015 µM

CC[C@H](C)[C@H](NC(=O)[C@H](CC(=O)O)NC(=O)[C@H](CO)NC(=O)CCNC(=S)Nc1ccc(-c2c3ccc(=O)cc-3oc3cc(O)ccc23)c(C(=O)O)c1)C(=O)N[C@@H](CCSC)C(=O)N[C@@H](CC(=O)O)C(=O)N[C@@H](Cc1ccccc1)C(=O)N[C@H](C(=O)N[C@@H](CC(C)C)C(=O)N[C@@H](CCCCN)C(=O)N[C@@H](CC(N)=O)C(=O)N[C@H](C(=O)N1CCC[C@H]1C(N)=O)[C@@H](C)O)C(C)C ({X1-βAla}-SDIMDFVLKNTP-NH2)
Kd [2]: > 100 µM | Ki [2]: > 1000 µM

C[C@](O)(c1cccc(F)c1)c1cn(C2O[C@H](CO)[C@@H](O)[C@H](O)[C@H]2O)nn1 (stereo partly drawn)
IC50 [3]: 0.00024 µM

CC(=O)N[C@@H]1C(n2cc([C@@](C)(O)c3cccc(F)c3)nn2)O[C@H](COCc2ccccc2)[C@H](OCc2ccccc2)[C@@H]1OCc1ccccc1 (stereo partly drawn)
Kd (Heat shock protein HSP90): 21.1 µM | IC50 [3]: 0.0224 µM

O=C(N[C@@H](Cn1cc(-c2ccccc2)nn1)C(=O)O)OCC1c2ccccc2-c2ccccc21
IC50 [3]: 0.00246 µM

COCCN1CC(=O)N(CCc2ccc(OC)cc2)CC(=O)N(c2cc(OC)cc(OC)c2)CC(=O)N(C(C)c2ccc(OC)cc2)CC(=O)N(C(C)c2ccc(OC)cc2)CC(=O)N[C@H](C)C1=O (stereo partly drawn)
deltaG [4]: -15.9 kcal/mol

COc1ccc([C@H](C)N2CC(=O)N[C@H](C)C(=O)N(CCc3ccccc3Oc3ccccc3)CC(=O)N(c3cc(OC)cc(OC)c3)CC(=O)N(CCCOC(C)C)CC(=O)N([C@@H](C)c3ccc(OC)cc3)CC2=O)cc1 (cyclo([dA][N(2-(2-PhOPh)Et)Gly][Gly(N-3,5-(OMe)2-Ph)][N((CH2)3OiPr)Gly][X2][X2]))
IC50 [5]: 0.105 µM | IC50 [6]: 5.44 µM

CCC(C)C(NC(=O)C(C)NC(=O)[C@H](CC(C)C)NC(=O)[C@H](CCC(N)=O)NC(=O)[C@H](CCC(=O)O)NC(=O)CNC(=O)CNC(C)=O)C(N)=O (stereo partly drawn) (Ac-GGEQL[ξA][ξI]-NH2)
Kd [7]: 0.018 µM

Fc1ccc(-c2cn(CSc3ccccc3)nn2)c(F)c1
IC50 [3]: > 0.1 µM

C[C@](O)(c1ccccc1)c1cn(C[C@H](NC(=O)OCC2c3ccccc3-c3ccccc32)C(=O)O)nn1
IC50 [3]: 0.00577 µM

C[C@](O)(c1cccc(F)c1)c1cn(CSc2ccccc2)nn1
IC50 [3]: 0.008 µM

Cc1cn([C@H]2C[C@H](n3cc([C@]4(O)CC[C@H]5[C@@H]6CCc7cc(O)ccc7[C@H]6CC[C@@]54C)nn3)[C@@H](CO)O2)c(=O)[nH]c1=O
IC50 [3]: 0.0124 µM

OC[C@H]1OC(n2cc(-c3ccc(F)cc3F)nn2)[C@H](O)[C@@H](O)[C@@H]1O (stereo partly drawn)
IC50 [3]: 0.0001 µM

O=C(N[C@@H](Cn1cc(-c2ccc(F)cc2F)nn1)C(=O)O)OCC1c2ccccc2-c2ccccc21
IC50 [3]: 0.00174 µM

CC(=O)N[C@@H]1C(n2cc(-c3ccc(F)cc3F)nn2)O[C@H](COCc2ccccc2)[C@H](OCc2ccccc2)[C@@H]1OCc1ccccc1 (stereo partly drawn)
IC50 [3]: > 0.1 µM
